Each structure is given as a SMILES string.

For the assay, the target named is T1, Nav1.7 voltage-gated sodium channel (Homo sapiens, UniProt Q15858).
T1 construct: Gene(s) encoding the full-length protein of the voltage-gated sodium channel of interest are cloned and expressed; expressed in transfected cells
T1 sequence (Q15858 whole entry): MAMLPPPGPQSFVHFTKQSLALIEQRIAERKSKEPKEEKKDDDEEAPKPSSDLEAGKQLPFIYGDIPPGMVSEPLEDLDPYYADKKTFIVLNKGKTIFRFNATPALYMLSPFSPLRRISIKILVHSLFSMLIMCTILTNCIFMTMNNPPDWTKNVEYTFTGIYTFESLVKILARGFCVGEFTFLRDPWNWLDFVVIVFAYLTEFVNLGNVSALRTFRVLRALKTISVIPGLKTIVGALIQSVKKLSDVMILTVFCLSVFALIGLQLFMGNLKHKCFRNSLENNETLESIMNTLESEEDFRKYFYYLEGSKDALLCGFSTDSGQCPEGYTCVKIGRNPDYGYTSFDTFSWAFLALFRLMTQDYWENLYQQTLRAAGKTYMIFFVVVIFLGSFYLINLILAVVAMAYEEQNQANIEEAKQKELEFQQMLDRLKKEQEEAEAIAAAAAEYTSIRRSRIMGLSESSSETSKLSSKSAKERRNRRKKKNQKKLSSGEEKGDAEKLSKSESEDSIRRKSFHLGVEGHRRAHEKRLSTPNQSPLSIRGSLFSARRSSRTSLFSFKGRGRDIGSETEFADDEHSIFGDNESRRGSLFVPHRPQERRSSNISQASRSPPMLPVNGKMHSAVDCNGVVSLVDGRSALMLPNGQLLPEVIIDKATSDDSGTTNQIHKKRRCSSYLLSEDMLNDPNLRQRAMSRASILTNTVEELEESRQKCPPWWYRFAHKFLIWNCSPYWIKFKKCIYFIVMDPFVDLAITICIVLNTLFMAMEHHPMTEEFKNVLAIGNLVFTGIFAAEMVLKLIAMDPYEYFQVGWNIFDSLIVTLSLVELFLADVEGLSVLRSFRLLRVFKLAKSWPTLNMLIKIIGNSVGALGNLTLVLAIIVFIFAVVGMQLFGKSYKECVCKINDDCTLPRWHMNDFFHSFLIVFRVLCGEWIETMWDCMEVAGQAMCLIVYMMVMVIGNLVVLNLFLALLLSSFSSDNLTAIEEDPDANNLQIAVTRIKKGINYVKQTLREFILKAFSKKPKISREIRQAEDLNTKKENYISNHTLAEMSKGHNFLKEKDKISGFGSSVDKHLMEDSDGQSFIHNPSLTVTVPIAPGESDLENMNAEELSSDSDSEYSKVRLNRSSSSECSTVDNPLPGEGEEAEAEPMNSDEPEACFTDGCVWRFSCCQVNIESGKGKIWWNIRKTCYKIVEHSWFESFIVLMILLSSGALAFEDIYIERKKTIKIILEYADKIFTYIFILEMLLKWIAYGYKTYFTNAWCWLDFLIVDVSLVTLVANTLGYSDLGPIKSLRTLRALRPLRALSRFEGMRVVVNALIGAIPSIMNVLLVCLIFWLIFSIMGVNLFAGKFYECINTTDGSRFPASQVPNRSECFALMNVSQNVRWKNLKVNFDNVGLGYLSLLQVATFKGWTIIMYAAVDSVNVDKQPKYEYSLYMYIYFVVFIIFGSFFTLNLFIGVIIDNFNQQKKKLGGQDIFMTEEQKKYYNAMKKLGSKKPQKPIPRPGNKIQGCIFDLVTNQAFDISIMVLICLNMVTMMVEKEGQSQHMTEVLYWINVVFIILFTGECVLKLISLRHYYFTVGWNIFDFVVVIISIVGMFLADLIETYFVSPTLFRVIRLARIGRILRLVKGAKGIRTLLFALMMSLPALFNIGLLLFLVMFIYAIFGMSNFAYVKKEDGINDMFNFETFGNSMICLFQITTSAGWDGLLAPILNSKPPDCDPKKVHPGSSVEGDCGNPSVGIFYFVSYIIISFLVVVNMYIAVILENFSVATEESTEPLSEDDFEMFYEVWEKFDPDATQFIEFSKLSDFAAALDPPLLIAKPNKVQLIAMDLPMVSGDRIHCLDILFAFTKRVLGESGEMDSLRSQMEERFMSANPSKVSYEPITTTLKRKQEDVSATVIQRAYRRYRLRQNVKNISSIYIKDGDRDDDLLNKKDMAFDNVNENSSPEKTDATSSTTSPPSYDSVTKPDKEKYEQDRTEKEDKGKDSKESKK
The assay is described as follows: Whole-cell voltage clamp electrophysiology assay. Type of assay: cell-based. To be noted: cells stably expressing the voltage-gated sodium channel of interest. In outline:
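Cells expressing full-length channel, exposed to drug by integrated pipetting on automated patch-clamp platforms or by microperfusion in conventional whole-cell patch clamp. Channels activated by a voltage protocol depolarising from a defined holding potential; buffers per platform manufacturer.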
One may read the IC50 as the concentration that gives 50% inhibition. A lower IC50 goes with greater potency in that assay. In turn, `O=C(N[C@@H]1COc2cccc(-c3ccncc3)c2C1)c1ccc(OCc2ccccn2)nc1` [Example 118, N-[(3S)-5-pyridin-4-yl-3,4-dihydro-2H-chromen-3-yl]-6-(pyridin-2-ylmethoxy)nicotinamide] showed an IC50 of 1.58 µM. To `O=C(N[C@@H]1COc2cccc(-c3ccncc3)c2C1)c1ccc(OCc2cccnc2)nc1` [Example 119, N-[(3S)-5-pyridin-4-yl-3,4-dihydro-2H-chromen-3-yl]-6-(pyridin-3-ylmethoxy)nicotinamide] belongs 2 µM; to `O=C(N[C@@H]1COc2cccc(-c3ccncc3)c2C1)c1ccc(OCc2cnccn2)nc1` [Example 120, 6-(pyrazin-2-ylmethoxy)-N-[(3S)-5-pyridin-4-yl-3,4-dihydro-2H-chromen-3-yl]nicotinamide], 1.58 µM. The same measure for `COc1ncc(-c2cccc3c2C[C@H](NC(=O)c2ccc(OCC4CCCO4)nc2)CO3)cn1` (stereo partly drawn) [Example 121, N-[(3S)-5-(2-methoxypyrimidin-5-yl)-3,4-dihydro-2H-chromen-3-yl]-6-(tetrahydrofuran-2-ylmethoxy)nicotinamide]: 5.01 µM; for `COc1ncc(-c2cccc3c2C[C@H](NC(=O)c2ccc(OCC4CCCCO4)nc2)CO3)cn1` (stereo partly drawn) [Example 122, N-[(3S)-5-(2-methoxypyrimidin-5-yl)-3,4-dihydro-2H-chromen-3-yl]-6-(tetrahydro-2H-pyran-2-ylmethoxy)nicotinamide]: 2 µM. To `COc1ncc(-c2cccc3c2C[C@H](NC(=O)c2ccc(OCC4CCOCC4)nc2)CO3)cn1` [Example 123, N-[(3S)-5-(2-methoxypyrimidin-5-yl)-3,4-dihydro-2H-chromen-3-yl]-6-(tetrahydro-2H-pyran-4-ylmethoxy)nicotinamide] belongs 1 µM. Compound `CC#CCOc1ccc(C(=O)N[C@@H]2COc3cccc(-c4cnc(OC)nc4)c3C2)cn1` [Example 124, 6-(but-2-yn-1-yloxy)-N-[(3S)-5-(2-methoxypyrimidin-5-yl)-3,4-dihydro-2H-chromen-3-yl]nicotinamide] had an IC50 of 0.158 µM. To `COc1ncc(-c2cccc3c2C[C@H](NC(=O)c2ccc(C(=O)NCCC(F)(F)F)nc2)CO3)cn1` [Example 125, N^5-[(3S)-5-(2-methoxypyrimidin-5-yl)-3,4-dihydro-2H-chromen-3-yl]-N^2-(3,3,3-trifluoropropyl)pyridine-2,5-dicarboxamide] belongs 0.316 µM; to `COCCOc1ccc(C(=O)N[C@@H]2COc3cccc(-c4ccncc4)c3C2)cn1` [Example 126, 6-(2-methoxyethoxy)-N-[(3S)-5-pyridin-4-yl-3,4-dihydro-2H-chromen-3-yl]nicotinamide], 2 µM. To `O=C(N[C@@H]1COc2cccc(-c3ccncc3)c2C1)c1ccc(OCC2CCO2)nc1` (stereo partly drawn) [Example 127, 6-(oxetan-2-ylmethoxy)-N-[(3S)-5-pyridin-4-yl-3,4-dihydro-2H-chromen-3-yl]nicotinamide] belongs 3.16 µM; to `CO[C@H](C)COc1ccc(C(=O)N[C@@H]2COc3cccc(-c4ccncc4)c3C2)cn1` [Example 128, 6-{[(2R)-2-methoxypropyl]oxy}-N-[(3S)-5-pyridin-4-yl-3,4-dihydro-2H-chromen-3-yl]nicotinamide], 1 µM; to `O=C(N[C@@H]1COc2cccc(-c3ccncc3)c2C1)c1ccc(OC2CCOCC2)nc1` [Example 129, N-[(3S)-5-pyridin-4-yl-3,4-dihydro-2H-chromen-3-yl]-6-(tetrahydro-2H-pyran-4-yloxy)nicotinamide], 0.2 µM. To `O=C(N[C@@H]1COc2cccc(-c3ccncc3)c2C1)c1ccc(C(=O)NC2CCOCC2)nc1` [Example 130, N^5-[(3S)-5-pyridin-4-yl-3,4-dihydro-2H-chromen-3-yl]-N^2-(tetrahydro-2H-pyran-4-yl)pyridine-2,5-dicarboxamide] belongs 3.98 µM; to `O=C(N[C@@H]1COc2cccc(-c3ccncc3)c2C1)c1ccc(C(=O)NCC(F)(F)F)nc1` [Example 131, N^5-[(3S)-5-pyridin-4-yl-3,4-dihydro-2H-chromen-3-yl]-N^2-(2,2,2-trifluoroethyl)pyridine-2,5-dicarboxamide], 0.631 µM; to `O=C(N[C@@H]1COc2cccc(-c3cccnc3)c2C1)c1ccc(C(=O)NCCC(F)(F)F)nc1` [Example 132, N^5-[(3S)-5-pyridin-3-yl-3,4-dihydro-2H-chromen-3-yl]-N^2-(3,3,3-trifluoropropyl)pyridine-2,5-dicarboxamide], 0.0794 µM. The compound `O=C(N[C@@H]1COc2cccc(-c3cccnc3)c2C1)c1cnc(OC2CCOCC2)cn1` [Example 133, N-[(3S)-5-pyridin-3-yl-3,4-dihydro-2H-chromen-3-yl]-5-(tetrahydro-2H-pyran-4-yloxy)pyrazine-2-carboxamide] showed a half-inhibitory concentration (IC50) of 0.794 µM. As for `COc1ccc(-c2cccc3c2C[C@H](NC(=O)c2ccc(OC4CCOCC4)nc2)CO3)cn1` [Example 134, N-[(3S)-5-(6-methoxypyridin-3-yl)-3,4-dihydro-2H-chromen-3-yl]-6-(tetrahydro-2H-pyran-4-yloxy)nicotinamide], the concentration for half-maximal inhibition (IC50) is 0.316 µM.

Take `COc1ccc(-c2cccc3c2C[C@H](NC(=O)c2ccc(OC4CCCOC4)nc2)CO3)cn1` (stereo partly drawn) [Example 135, N-[(3S)-5-(6-methoxypyridin-3-yl)-3,4-dihydro-2H-chromen-3-yl]-6-(tetrahydro-2H-pyran-3-yloxy)nicotinamide]: the midpoint of inhibition, the IC50, lay at 0.316 µM.

For the compound `O=C(N[C@@H]1COc2cccc(-c3ccncc3)c2C1)c1ccc(OC2CCCOC2)nc1` (stereo partly drawn) [Example 136, N-[(3S)-5-pyridin-4-yl-3,4-dihydro-2H-chromen-3-yl]-6-(tetrahydro-2H-pyran-3-yloxy)nicotinamide], the 50% inhibitory concentration (IC50) was 0.316 µM. The same measure for `COCCOc1ccc(C(=O)N[C@@H]2COc3cccc(-c4cccnc4)c3C2)cn1` [Example 137, 6-(2-methoxyethoxy)-N-[(3S)-5-pyridin-3-yl-3,4-dihydro-2H-chromen-3-yl]nicotinamide]: 0.794 µM; for `COCCn1nc(C)c(C(=O)N[C@@H]2COc3cccc(-c4cccnc4)c3C2)n1` [Example 138, 2-(2-methoxyethyl)-5-methyl-N-[(3S)-5-pyridin-3-yl-3,4-dihydro-2H-chromen-3-yl]-2H-1,2,3-triazole-4-carboxamide]: 3.16 µM. To `O=C(N[C@@H]1COc2cccc(-c3cccnc3)c2C1)c1ccc(OCC2CCO2)nc1` (stereo partly drawn) [Example 139, 6-(oxetan-2-ylmethoxy)-N-[(3S)-5-pyridin-3-yl-3,4-dihydro-2H-chromen-3-yl]nicotinamide] belongs 1.58 µM; to `COCCOc1ccc(C(=O)N[C@@H]2COc3cccc(-c4ccnc(OC)c4)c3C2)cn1` [Example 140, 6-(2-methoxyethoxy)-N-[(3S)-5-(2-methoxypyridin-4-yl)-3,4-dihydro-2H-chromen-3-yl]nicotinamide], 0.631 µM. Compound `COCCOc1ccc(C(=O)N[C@@H]2COc3cccc(-c4cnc(C)nc4)c3C2)cn1` [Example 141, 6-(2-methoxyethoxy)-N-[(3S)-5-(2-methylpyrimidin-5-yl)-3,4-dihydro-2H-chromen-3-yl]nicotinamide] gave a half-inhibitory concentration (IC50) of 3.98 µM. The compound `COCCOc1ccc(C(=O)N[C@@H]2COc3cccc(-c4ccncc4C)c3C2)cn1` [Example 142, 6-(2-methoxyethoxy)-N-[(3S)-5-(3-methylpyridin-4-yl)-3,4-dihydro-2H-chromen-3-yl]nicotinamide] had an IC50 of 3.16 µM.

With `COCCOc1ccc(C(=O)N[C@@H]2COc3cccc(-c4ccc(F)nc4)c3C2)cn1` [Example 143, N-[(3S)-5-(6-fluoropyridin-3-yl)-3,4-dihydro-2H-chromen-3-yl]-6-(2-methoxyethoxy)nicotinamide], the half-maximal inhibitory concentration (IC50) was 1.58 µM.

On to `COCCOc1ccc(C(=O)N[C@@H]2CCc3cccc(-c4cccnc4F)c3C2)cn1` [Example 144, N-[(2R)-8-(2-fluoropyridin-3-yl)-1,2,3,4-tetrahydronaphthalen-2-yl]-6-(2-methoxyethoxy)nicotinamide], for which the IC50 was 3.16 µM. To `O=C(N[C@@H]1CCc2cccc(-c3cccnc3F)c2C1)c1ccc(OC2CCOCC2)nc1` [Example 145, N-[(2R)-8-(2-fluoropyridin-3-yl)-1,2,3,4-tetrahydronaphthalen-2-yl]-6-(tetrahydro-2H-pyran-4-yloxy)nicotinamide] belongs 0.2 µM; to `O=C(N[C@@H]1CCc2cccc(-c3ccnnc3)c2C1)c1ccc(OC2CCCOC2)nc1` (stereo partly drawn) [Example 146, N-[(2R)-8-pyridazin-4-yl-1,2,3,4-tetrahydronaphthalen-2-yl]-6-(tetrahydro-2H-pyran-3-yloxy)nicotinamide], 7.94 µM. To `Cc1ccc(-c2cccc3c2C[C@H](NC(=O)c2cnc(OC4CCCOC4)nc2)CC3)cn1` (stereo partly drawn) [Example 147, N-[(2R)-8-(6-methylpyridin-3-yl)-1,2,3,4-tetrahydronaphthalen-2-yl]-2-(tetrahydro-2H-pyran-3-yloxy)pyrimidine-5-carboxamide] belongs 1.58 µM. To `CCCCn1ccc(C(=O)N[C@@H]2COc3cccc(-c4cnc(OC)c(F)c4)c3C2)cc1=O` [Example 148, 1-butyl-N-[(3S)-5-(5-fluoro-6-methoxypyridin-3-yl)-3,4-dihydro-2H-chromen-3-yl]-2-oxo-1,2-dihydropyridine-4-carboxamide] belongs 0.794 µM; to `COc1ncc(-c2cccc3c2C[C@H](NC(=O)c2cnc(OC4CCOC4)nc2)CO3)cc1F` (stereo partly drawn) [Example 149, N-[(3S)-5-(5-fluoro-6-methoxypyridin-3-yl)-3,4-dihydro-2H-chromen-3-yl]-2-(tetrahydrofuran-3-yloxy)pyrimidine-5-carboxamide], 6.31 µM. In the case of `CCCCn1ccc(C(=O)N[C@@H]2COc3cccc(-c4cnc(OC)nc4)c3C2)cc1=O` [Example 150, 1-butyl-N-[(3S)-5-(2-methoxypyrimidin-5-yl)-3,4-dihydro-2H-chromen-3-yl]-2-oxo-1,2-dihydropyridine-4-carboxamide], the IC50 is 1 µM.
